From patent US20100331330A1, “METHODS AND COMPOSITIONS FOR TREATING ISCHEMIC STROKE” (priority 2006, published 2010)
“Also recorded” adds a separate entry of the source. Like-named read-outs stand apart in the source and are kept apart here.

Legend:
[1] = test system: rats subjected to middle cerebral artery occlusion (MCAO); details: for infarction volume relative to vehicle injected rats: assayed 24 h after MCAO
Text: Male Wistar rats, 250-350 g, were obtained from Charles River (Wilmington, Mass.). Animals were housed and cared for in the Animal Resource Center and allowed free access to food and water before and after surgery. All procedures were approved by the Institutional Animal Care and Use Committee of Case Western Reserve University.
A 4.0 nylon suture with a flame rounded tip was advanced through the internal carotid artery to occlude the MCA while cerebral blood flow was monitored using laser doppler (Perimed AB, Jarfalla, Sweden). At the time of reperfusion rats were again anesthetized and the suture removed with cerebral blood flow monitoring to ensure reperfusion. Arterial blood pressure, arterial blood gases and temperature were all monitored and controlled during the length of the procedure.
Control animals were injected with 0.1 ml DMSO.
Rats were euthanized by exposure to 5% halothane until breathing ceased. They then underwent intracardiac perfusion first with PBS and then with 4% paraformaldehyde. Brains were isolated and immersion fixed in 4% paraformaldehyde overnight. Tissue was cryoprotected in 30% sucrose in PBS. Twenty micron frozen sections were collected every […] beginning at the level of the forceps minor corpus callosum and extending through the hippocampus. Sections were stained with Thionin and the area of infarction measured using Bioquant computer software (R&M Biometrics, Nashville, Tenn.) by subtracting the uninfarcted tissue in the ischemic hemisphere from the volume of the contralateral hemisphere. This method corrects for post-ischemic edema.
Male Wistar rats, 250-350 g, were obtained from Charles River (Wilmington, Mass.). […] Animals were housed and cared for in the Animal Resource Center and allowed free access to food and water before and after surgery. […] The tail artery was exposed and cannulated to measure mean arterial blood pressure and to obtain blood for blood gas measurements during surgery. Animals in which normal temperature, blood pressure and gases could not be maintained were excluded from the study. MCAO was performed as previously described. Briefly, the bifurcation of the common carotid artery was exposed. The external carotid artery was isolated and a suture placed 0.5 cm from the bifurcation. Following electrocoagulation distal to the suture the external carotid was cut between the suture and the electrocoagulated segment. A suture was applied to the common carotid artery such that it could be removed later. A loop of suture was then placed under the internal carotid artery and the artery elevated to transiently occlude blood flow. A small nick was made in the wall of the external carotid artery. Through this nick a 22 mm length of 4.0 Ethicon suture, its tip rounded by heating near a flame, was gently threaded from the external to the internal carotid artery lumen to a distance of 18 mm from the bifurcation of the carotid. The thread was held in place with a suture around the stump of the external carotid artery and the suture around the internal carotid artery released. The catheter was removed from the tail artery and both incisions were closed. The rats were then allowed to recover from anesthesia. […] The neck incision was reopened and the 4.0 Ethicon suture removed. The suture that held it in place was tightened and the suture around the common carotid artery was removed. After confirmation of reperfusion by visual inspection, the incision was closed and the animal allowed to recover.
Twenty micron frozen sections of paraformaldehyde fixed brains were collected every 1000 μm beginning at the level of the forceps minor corpus callosum and extending through the hippocampus. The slides were stained with Thionin. The sections were then trans-illuminated and the image transmitted to a computer screen.

myeloperoxidase-IR cells = experiment: Quantification of myeloperoxidase-IR cells (leukocyte infiltration) after MCAO; assay type: in vivo, rat
Text: Frozen sections of the brains were cut coronally at ten microns. Sections were collected every 1000 mm beginning at the level of the forceps minor corpus callosum and extending through the hippocampus. Ten micron cryostat sections were labeled using either mouse anti-ICAM (Sertec, UK) or rabbit antimyeloperoxidase (Dacko) antibodies in 5% rat serum. Primary antibodies were visualized using either goat anti-mouse conjugated to Oregon Green or goat anti-rabbit conjugated to Oregon-Green (Molecular Probes, Eugene, Oreg.) in 5% rat serum. Adjacent sections were incubated without primary antisera to control for non-specific binding of the secondary antiserum. Sections were viewed using a fluorescent microscope and images acquired and stored using Spot Advanced imaging software (Spot Image Corporation, Chantilly, Va.). […]
Myeloperoxidase-IR cells were quantified from cryostat sections through the maximal area of infarction labeled with rabbit anti-myeloperoxidase antibody followed by anti-rabbit antibodies conjugated to Oregon-green. Digital photographs of high powered fields covering a representative section were analyzed in Adobe Photoshop by overlaying a grid and counting all myeloperoxidase-IR cells. The average number of myeloperoxidase-IR cells per high powered field (360 μm2) was calculated and plotted using data from at least three animals.

ICAM = ICAM immunohistochemistry of brain sections after MCAO; assay type: in vivo, rat; details: rosiglitazone 0.1 mg/kg or pioglitazone 1 mg/kg 24 h before and at time of MCAO; sacrificed 24 h later
Text: Animals were euthanized and brains prepared in the same manner described for infarct volume determination. Frozen sections of the brains were cut coronally at ten microns. Sections were collected every 1000 mm beginning at the level of the forceps minor corpus callosum and extending through the hippocampus. Ten micron cryostat sections were labeled using either mouse anti-ICAM (Sertec, UK) or rabbit antimyeloperoxidase (Dacko) antibodies in 5% rat serum. Primary antibodies were visualized using either goat anti-mouse conjugated to Oregon Green or goat anti-rabbit conjugated to Oregon-Green (Molecular Probes, Eugene, Oreg.) in 5% rat serum. Adjacent sections were incubated without primary antisera to control for non-specific binding of the secondary antiserum. Sections were viewed using a fluorescent microscope and images acquired and stored using Spot Advanced imaging software (Spot Image Corporation, Chantilly, Va.). Some sections were also imaged using confocal microscopy.

ICAM mRNA = ICAM mRNA by real time PCR after MCAO; assay type: in vivo, rat; details: rosiglitazone 0.1 mg/kg or pioglitazone 1 mg/kg 24 h before and at time of 2 hour MCAO; sacrificed 24 h later
LPL mRNA = experiment: Lipoprotein lipase (LPL) mRNA by real time PCR after MCAO; assay type: in vivo, rat; details: rosiglitazone 0.1 mg/kg, pioglitazone 1.0 mg/kg; 24 h before and at time of 2 hour MCAO; tissue 24 h later
Text: At the time of sacrifice the animal was placed in an anesthesia chamber and exposed to 5% halothane, 30% oxygen, 65% nitrous oxide until it ceased breathing. The rat was the, processed for either histologic and immunocytochemical analysis or decapitated and the brain immediately dissected for mRNA isolation. Animals used for immunohistochemistry underwent intracardiac perfusion; the thoracic cavity was opened, a blunt needle placed through the left ventricle into the aorta and the right atrium cut. Animals were perfused through the heart, first with 0.1 M phosphate buffer and then with 4% paraformaldehyde (pH 7.4). The brain was removed from the rat and immersion fixed in 4% paraformaldehyde for an additional hour. Tissue was then transferred to 30% sucrose in phosphate buffer in order to cyroprotect it. Brains were mounted in OCT sectioning medium and frozen sections cut at either twenty microns (for infarct volume determination) or ten microns (for immunocytochemistry). Animals used in real time PCR experiments were decapitated after euthanasia and the brain quickly removed.
A 2 mm thick coronal slice of tissue through the area of maximal infarction was quickly homogenized in Trizol (Gibco BRL, Rockville, Md.). […] RNA was isolated using Life Technologies Protocol (Rockville, Md.), and cDNA synthesized from 1.5 μg of total RNA. […]

[2] = two hour continuous monitoring; previously shown; cited from earlier work
[3] = test system: rodent models of cerebral ischemia; details: cited from earlier work
3T3-L1 cells = details: cited from earlier work
dopaminergic cell death = details: Parkinson's disease model; cited from earlier work

## CCc1ccc(CCOc2ccc(CC3SC(=O)NC3=O)cc2)nc1 (stereo not shown) [pioglitazone, 5-[4-[2-(5-ethylpyridin-2-yl)ethoxyl]benzyl]thiazolidine-2,4-dione]
[1]; 0.5 mg/kg IP 24 h before and at time of 2 hour MCAO
  infarction volume relative to vehicle injected rats: did not significantly reduce infarction volume
[1]; 1 mg/kg IP 1 hour after onset of 2 hour MCAO
  infarct volume compared to vehicle treated rats: significantly reduce infarction volume; also recorded: significantly reduced
[1]; 1 mg/kg IP 6 hours after onset of 2 hour MCAO
  infarct volume compared to vehicle treated rats: not when given three or six hours after MCAO; also recorded: no significant change in infarct volume
[1]; 1 mg/kg IP 24 h before and at time of 2 hour MCAO
  infarction volume relative to vehicle injected rats: significantly reduced infarction size
[1]; 1 mg/kg IP 24 h before and at time of 2 hour MCAO, listed as Pioglitazone
  infarction volume relative to vehicle injected rats: did significantly reduce infarction volume; also recorded: significantly reduced infarction volume
[1]; 1 mg/kg IP 24 h before and at time of MCAO, permanent occlusion, listed as Pioglitazone
  infarction volume relative to vehicle treated rats: no significant protection was evident
[1]; 3.5 mg/kg IP 24 h before and at time of 2 hour MCAO
  infarction volume relative to vehicle injected rats: did significantly reduce infarction volume
[1]; 7 mg/kg IP 24 h before and at time of 2 hour MCAO
  infarction volume relative to vehicle injected rats: protection was lost
[1]; IP 24 h before and at time of 2 hour MCAO, infarct volume 24 h after MCAO
  optimal dose for neuroprotection: 1 mg/kg
[1]; pioglitazone 1 mg/kg or rosiglitazone 0.1 mg/kg 3 hours after MCAO onset, reperfusion at 2 hours (before treatment)
  infarct volume compared to vehicle treated rats: not when given three or six hours after MCAO; also recorded: infarction volumes which were similar to animals injected with vehicle; also recorded: no significant change in infarct volume; also recorded: infarction volumes similar to those previously seen in untreated and vehicle treated rats
[1]; pioglitazone 1 mg/kg or rosiglitazone 0.1 mg/kg 3 hours after MCAO onset, reperfusion at 3 hours 15 minutes (after treatment)
  infarction volume relative to rats reperfused at two hours: neuroprotective when given up to three hours after MCAO, but only if reperfusion occurs after treatment; also recorded: significantly smaller infarctions volumes; also recorded: significantly reduced infarction volumes
myeloperoxidase-IR cells; reperfused at 2 h and treated at 3 h, relative to treated at 3 h and reperfused at 3.25 h
  myeloperoxidase-IR cells within the ischemic hemisphere: significantly increased numbers of myeloperoxidase-IR cells
myeloperoxidase-IR cells; rosiglitazone 0.1 mg/kg or pioglitazone 1 mg/kg at 3 h, reperfusion delayed to 3.25 h, relative to reperfusion at 2 h
  number of myeloperoxidase-IR cells per high powered field: significantly reduced
ICAM
  ICAM-IR in brain sections compared with vehicle treated rats: less is seen
ICAM mRNA
  ICAM mRNA compared with vehicle treated rats: significant reduction in ICAM mRNA
LPL mRNA
  increase in LPL mRNA levels within the ischemic hemisphere: 307%
[2]
  cerebral blood flow: no significant change in cerebral blood flow
[3]; in vivo
  neuroprotection in rodent models of cerebral ischemia: effective neuroprotective agents
[3]; permanent ischemia
  efficacy of oral pretreatment: but not permanent ischemia
[3]; transient ischemia
  efficacy of oral pretreatment: effective in transient
3T3-L1 cells
  effect on PPARγ-corepressor complex: dissociation of the PPARγ-corepressor complex and transcriptional activation
Dopaminergic cell death
  dopaminergic cell death: attenuates dopaminergic cell death
